Reference: patent US20260265244A1, “HETEROCYCLIC COMPOUNDS AS STING ANTAGONISTS” (Boehringer Ingelheim International GmbH, priority 2022, published 2026)
pIC50: −log10 of the molar value.

Assays:
[1] = target: T1, human STING WT (R232) (Homo sapiens, UniProt Q86WV6, H232R); assay: Human STING HTRF binding assay (competitive, Cisbio 64BDSTGPEG)
T1 construct: purchased Cisbio 64BDSTGPEG
In short: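 Competitive HTRF: 6His-tagged human STING WT R232 binding domain (residues 138-379) with anti-6His Cryptate antibody and d2-labeled STING ligand, 180 min at room temperature, 1% DMSO, 8 concentrations from 10 μM or 1 μM top in ~1:5 steps. HTRF ratios were calibrated to a cGAMP standard curve and IC50 obtained by 4-parameter logistic fit.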

[2] = target: T2, cGAMP binding domain of wild-type (GRR) human STING, residues 155-341 (Homo sapiens, UniProt Q86WV6, H232R); assay: Increase of stability of STING protein against thermal denaturation, Differential Scanning Fluorimetry (DSF)
T2 construct: His-TEV-hSTING (WT); TEV protease cleavage site (N); made in house; host or cells: E. coli BL21 DE3
T2 sequence (Q86WV6 with tags, fused parts or gaps H232R): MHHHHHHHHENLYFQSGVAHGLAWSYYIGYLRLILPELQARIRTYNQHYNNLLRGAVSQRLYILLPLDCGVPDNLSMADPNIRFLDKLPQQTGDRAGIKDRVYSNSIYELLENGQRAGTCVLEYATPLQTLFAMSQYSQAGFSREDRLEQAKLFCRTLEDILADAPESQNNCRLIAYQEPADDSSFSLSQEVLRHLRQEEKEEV
In short: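 3 µM His-tagged protein with 100 uM compound, 5×SYPRO Orange, 2% DMSO in 20 mM Tris, 150 mM NaCl, pH7.5; 15–95 °C ramp in 0.5 °C steps (15 s/cycle). Tm from Boltzmann fit of the dye melt curve, duplicates averaged, repeated if SD>1.5 °C; ΔTm = Tm with compound minus Tm of protein alone.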

T1 sequence (Q86WV6 138-379 H232R): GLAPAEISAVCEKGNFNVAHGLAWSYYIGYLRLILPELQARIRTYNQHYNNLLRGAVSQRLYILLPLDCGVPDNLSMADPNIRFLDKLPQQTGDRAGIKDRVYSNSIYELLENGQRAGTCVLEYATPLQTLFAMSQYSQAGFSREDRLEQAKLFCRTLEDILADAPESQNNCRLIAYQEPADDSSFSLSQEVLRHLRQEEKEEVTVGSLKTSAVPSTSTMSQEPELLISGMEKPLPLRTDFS

SMILES | pIC50 [1] | DSF [2] [K]
Cc1c(C(C)C)c(-c2cccc3nn(C[C@H](O)c4ccccc4)cc23)nn1-c1ccn2c(C(F)F)nnc2c1C1CC1 [Example 76] | 7.76 | 26
Cc1nc2nn(C)cc2cc1-n1nc(-c2cccc3nn(C[C@H](OCCF)c4ccccc4)cc23)c(C(C)C)c1C [Example 78, 4-(1-{2,6-dimethyl-2H-pyrazolo[3,4-b]pyridin-5-yl}-5-methyl-4-(propan-2-yl)-1H-pyrazol-3-yl)-2-[(2R)-2-(2-fluoroethoxy)-2-phenylethyl]-2H-indazole] | 7.78 | 24
CCCO[C@@H](Cn1cc2c(-c3nn(-c4cc5cn(C)nc5nc4C)c(C)c3C(C)C)cccc2n1)c1ccccc1 [Example 81, 4-(1-{2,6-dimethyl-2H-pyrazolo[3,4-b]pyridin-5-yl}-5-methyl-4-(propan-2-yl)-1H-pyrazol-3-yl)-2-[(2R)-2-phenyl-2-propoxyethyl]-2H-indazole] | 7.51 | 22
Cc1cc([C@@H](O)Cn2cc3c(-c4nn(-c5cc6cn(C)nc6nc5C)c(C)c4C(C)C)cccc3n2)ccn1 [Example 82, (1R)-2-[4-(1-{2,6-dimethyl-2H-pyrazolo[3,4-b]pyridin-5-yl}-5-methyl-4-(propan-2-yl)-1H-pyrazol-3-yl)-2H-indazol-2-yl]-1-(2-methylpyridin-4-yl)ethan-1-ol] | 8.49 | 27
COCCO[C@@H](Cn1cc2c(-c3nn(-c4cc5cn(C)nc5nc4C)c(C)c3C(C)C)cccc2n1)c1ccccc1 [Example 85, 4-(1-{2,6-dimethyl-2H-pyrazolo[3,4-b]pyridin-5-yl}-5-methyl-4-(propan-2-yl)-1H-pyrazol-3-yl)-2-[(2R)-2-(2-methoxyethoxy)-2-phenylethyl]-2H-indazole] | 7.80 | 23
Cc1c(C(C)C)c(-c2cccc3nn(C[C@H](O)c4ccccc4)cc23)nn1-c1cc2cn(C)nc2nc1N(C)C [Example 87, (1R)-2-(4-{1-[6-(dimethylamino)-2-methyl-2H-pyrazolo[3,4-b]pyridin-5-yl]-5-methyl-4-(propan-2-yl)-1H-pyrazol-3-yl}-2H-indazol-2-yl)-1-phenylethan-1-ol] | 7.69 | 24
Cn1cc2cc(-c3nc(-c4cccc5nn(C[C@H](O)c6ccc(OCC#N)cc6)cc45)c(C4CC4)n3C)c(C3CC3)nc2n1 [Example 90, 2-{4-[(1R)-2-[4-(5-cyclopropyl-2-{6-cyclopropyl-2-methyl-2H-pyrazolo[3,4-b]pyridin-5-yl}-1-methyl-1H-imidazol-4-yl)-2H-indazol-2-yl]-1-hydroxyethyl]phenoxy} acetonitrile] | 7.70 | 29
Cc1nc2nn(C)cc2cc1-n1nc(-c2cccc3nn(C[C@H](O)c4ccccc4)cc23)c(C2(C)CC2)c1C [Example 92, (1R)-2-[4-(1-{2,6-Dimethyl-2H-pyrazolo[3,4-b]pyridin-5-yl}-5-methyl-4-(1-methylcyclopropyl)-1H-pyrazol-3-yl)-2H-indazol-2-yl]-1-phenylethan-1-ol] | 8.37 | 24
CCc1c(-c2cccc3nn(C[C@H](O)c4ccccc4)cc23)nn(-c2cc3cn(C)nc3nc2C)c1CC [Example 93, (1R)-2-[4-(1-{2,6-dimethyl-2H-pyrazolo[3,4-b]pyridin-5-yl}-4,5-diethyl-1H-pyrazol-3-yl)-2H-indazol-2-yl]-1-phenylethan-1-ol] | 7.76 | 26
Cc1c(-n2nc(-c3cccc4nn(C[C@H](O)c5ccccc5)cc34)c(C(C)C)c2C)ccn2c(C)cnc12 [Example 94, (1R)-2-[4-(1-{3,8-dimethylimidazo[1,2-a]pyridin-7-yl}-5-methyl-4-(propan-2-yl)-1H-pyrazol-3-yl)-2H-indazol-2-yl]-1-phenylethan-1-ol] | 7.77 | 27
Cc1nc2nn(C)cc2cc1-n1nc(-c2cccc3nn(C[C@H](O)c4ccccc4)cc23)c(C(C)CO)c1C (stereo partly drawn) [Example 95, 2-(1-{2,6-dimethyl-2H-pyrazolo[3,4-b]pyridin-5-yl}-3-{2-[(2R)-2-hydroxy-2-phenylethyl]-2H-indazol-4-yl}-5-methyl-1H-pyrazol-4-yl)propan-1-ol] | 7.94 | 24

Further molecules by rising pIC50 [1], results first:

pIC50 [1] | DSF [2] [K] | SMILES
7.01 | 25 | Cc1nc2nn(C)cc2cc1-n1nc(-c2cccc3nn(CC(O)c4ccc(Br)cc4)cc23)c(C(C)C)c1C (centres unmarked) [Example 88, 1-(4-Bromophenyl)-2-[4-(1-{2,6-dimethyl-2H-pyrazolo[3,4-b]pyridin-5-yl}-5-methyl-4-(propan-2-yl)-1H-pyrazol-3-yl)-2H-indazol-2-yl]ethan-1-ol]
7.63 | 24 | Cc1nc2nn(C)cc2cc1-n1nc(-c2cccc3nn(CC(O)C4CCCCC4)cc23)c(C(C)C)c1C (centres unmarked) [Example 83, 1-cyclohexyl-2-[4-(1-{2,6-dimethyl-2H-pyrazolo[3,4-b]pyridin-5-yl}-5-methyl-4-(propan-2-yl)-1H-pyrazol-3-yl)-2H-indazol-2-yl]ethan-1-ol]
7.68 | 27 | CNc1nc2nn(C)cc2cc1-n1nc(-c2cccc3nn(C[C@H](O)c4ccccc4)cc23)c(C(C)C)c1C [Example 84, (1R)-2-(4-{5-methyl-1-[2-methyl-6-(methylamino)-2H-pyrazolo[3,4-b]pyridin-5-yl]-4-(propan-2-yl)-1H-pyrazol-3-yl}-2H-indazol-2-yl)-1-phenylethan-1-ol]
7.70 | 23 | C=CCO[C@@H](Cn1cc2c(-c3nn(-c4cc5cn(C)nc5nc4C)c(C)c3C(C)C)cccc2n1)c1ccccc1 [Example 79, 4-(1-{2,6-dimethyl-2H-pyrazolo[3,4-b]pyridin-5-yl}-5-methyl-4-(propan-2-yl)-1H-pyrazol-3-yl)-2-[(2R)-2-phenyl-2-(prop-2-en-1-yloxy)ethyl]-2H-indazole]
7.76 | 26 | Cc1c(C(C)C)c(-c2cccc3nn(C[C@H](O)c4ccccc4)cc23)nn1-c1cc2cn(C)nc2nc1C1(C)CC1 [Example 80, (1R)-2-(4-{5-methyl-1-[2-methyl-6-(1-methylcyclopropyl)-2H-pyrazolo[3,4-b]pyridin-5-yl]-4-(propan-2-yl)-1H-pyrazol-3-yl}-2H-indazol-2-yl)-1-phenylethan-1-ol]
7.76 | 24 | Cc1c(C(C)C)c(-c2cccc3nn(C[C@H](O)c4ccccc4)cc23)nn1-c1cc2cn(C)nc2nc1C(C)(C)O [Example 89, 2-[5-(3-{2-[(2R)-2-hydroxy-2-phenylethyl]-2H-indazol-4-yl}-5-methyl-4-(propan-2-yl)-1H-pyrazol-1-yl)-2-methyl-2H-pyrazolo[3,4-b]pyridin-6-yl]propan-2-ol]
7.77 | 25 | Cc1nc2nn(C)cc2cc1-n1nc(-c2cccc3nn(C[C@H](OCCC(C)(C)O)c4ccccc4)cc23)c(C(C)C)c1C [Example 74, 4-[(1R)-2-[4-(1-{2,6-dimethyl-2H-pyrazolo[3,4-b]pyridin-5-yl}-5-methyl-4-(propan-2-yl)-1H-pyrazol-3-yl)-2H-indazol-2-yl]-1-phenylethoxy]-2-methylbutan-2-ol]
8.01 | 28 | COC(C)c1nc2nn(C)cc2cc1-n1nc(-c2cccc3nn(C[C@H](O)c4ccccc4)cc23)c(C(C)C)c1C (some centres unmarked) [Example 75]
8.12 | 29 | Cn1cc([C@@H](O)Cn2cc3c(-c4nc(-c5cc6cn(C)nc6nc5C5CC5)n(C)c4C4CC4)cccc3n2)cn1 [Example 91, (1R)-2-[4-(5-cyclopropyl-2-{6-cyclopropyl-2-methyl-2H-pyrazolo[3,4-b]pyridin-5-yl}-1-methyl-1H-imidazol-4-yl)-2H-indazol-2-yl]-1-(1-methyl-1H-pyrazol-4-yl)ethan-1-ol]
8.16 | 28 | Cc1c(-n2nc(-c3cccc4nn(C[C@H](O)c5ccccc5)cc34)c(C(C)C)c2C)ccn2c(C)nnc12 [Example 86, (1R)-2-[4-(1-{3,8-dimethyl-[1,2,4]triazolo[4,3-a]pyridin-7-yl}-5-methyl-4-(propan-2-yl)-1H-pyrazol-3-yl)-2H-indazol-2-yl]-1-phenylethan-1-ol]
8.29 | 28 | [2H][C@](O)(Cn1cc2c(-c3nn(-c4cc5cn(C)nc5nc4C)c(C)c3C(C)C)cccc2n1)c1ccccc1 [Example 3, (1R)-2-[4-(1-{2,6-dimethyl-2H-pyrazolo[3,4-b]pyridin-5-yl}-5-methyl-4-(propan-2-yl)-1H-pyrazol-3-yl)-2H-indazol-2-yl]-1-phenyl(1-^2H)ethan-1-ol]
